Where two headings read alike, the source gives them in different places.
How the values were obtained:
[1] = system: LNCaP cells; assay: Sulforhodamine B (SRB) in vitro chemosensitivity assay on LNCaP cells; assay type: cell-based; conditions: for LC50: read-out: cytocidal effects by 50% (LC50), LNCaP cells, 144 h exposure; for LC50 / cytocidal effects by 50% (LC50): n.r. = not reached
Protocol: (§1) Sulforhodamine B (SRB) assay was used according to the method by Skehan et al. (JNCI, 1990). Briefly, cells were collected by trypsinization, counted and plated at a density of 5,000 cells/well in 96-well flat-bottomed microtiter plates (100 μl of cell suspension/well). In the chemosensitivity assay, experiments were run in octuplicate, and each experiment was repeated three times. The optical density (OD) of cells was determined at a wavelength of 490 nm by a colorimetric plate reader.
(§2) Growth inhibition and cytocidal effect of drugs were calculated according to the formula reported by Monks et al. (JNCI, 1991): [(ODtreated−ODzero)/(ODcontrol−ODzero)]×100%, when ODtreated is > to ODzero. If ODtreated is above ODzero, treatment has induced a cytostatic effect, whereas if ODtreated is below ODzero, cell killing has occurred. The ODzero depicts the cell number at the moment of drug addition, the ODcontrol reflects the cell number in untreated wells and the ODtreated reflects the cell number in treated wells on the day of the assay. TUNEL Assay
The authors examined the antitumour activity of the compounds for which the synthesis is described above, in the hormone-sensitive prostate cancer cell line LNCaP. (R)-Bicalutamide and the novel compounds were tested at the increasing concentrations of […]. The highest dose used was chosen on the basis of the clinically achievable peak plasma concentration reported in the literature for bicalutamide (Cockshott I D. Clin Pharmacokinet. 2004; 43 (13) 855-78).
After 144-hr exposure time, the cytotoxic effect of the molecules was calculated according to the method of Monks et al. (Monks A, et al., J. Nat. Cancer Inst. 1991; 83: 757-66).

[2] = system: PC-3; assay: SRB cytotoxicity on PC-3 cells; assay type: cell-based, human; conditions: PC-3 cells (no AR), 144 h exposure
Protocol: (§3) Finally, compounds were also tested on HepG2 cells, originally isolated from a primary hepatoblastoma of a child, purchased from ATCC.
as §1, §2
(§4) The authors tested the antitumour activity of the compounds also on PC-3 and DU145 cancer cell lines, representative of hormone-refractory prostate cancer due to AR receptor absence.

[3] = system: DU145; assay: SRB cytotoxicity on DU145 cells; assay type: cell-based, human; conditions: DU145 cells (no AR), 144 h exposure
Protocol: as §3, §1, §2, §4

[4] = system: LNCaP cells; assay: TUNEL assay of apoptotic cells in LNCaP; assay type: cell-based, human; conditions: 144-h exposure, 20.0 μM
Protocol: Cells were fixed in 1% paraformaldehyde in PBS on ice for 15 min, suspended in ice cold ethanol (70%) and stored overnight at −20° C. Cells were then washed twice in PBS and resuspended in PBS containing 0.1% Triton X-100 for 5 min at 4° C. Thereafter, samples were incubated in 50 μl of solution containing TdT and FITC-conjugated dUTP deoxynucleotides 1:1 (Roche Diagnostic GmbH, Mannheim, Germany) in a humidified atmosphere for 90 min at 37° C. in the dark, washed in PBS, counterstained with propidium iodide (2.5 μg/ml, MP Biomedicals, Verona, Italy) and RNAse (10 Kunits/ml, Sigma Aldrich, Milan, Italy) for 30 min at 4° C. in the dark and analyzed by flow cytometry.
After the end of drug exposures, medium was removed and cells were detached from the flasks by trypsin treatment, washed twice with PBS and stained according to the different methods specified below. Flow cytometric analysis was performed using a FACS Canto flow cytometer (Becton Dickinson, San Diego, Calif.). Data acquisition and analysis were performed using FACSDiva software (Becton Dickinson). Samples were run in triplicate and 10,000 events were collected for each replica. Data were the average of three experiments, with errors under 5%.
The cells, before TUNEL assay, were continuously exposed to the anti-androgen compounds for 144 hours at the concentration of 20.0 μM.

[5] = system: LNCaP-AR cells; assay: TUNEL assay of apoptotic cells in LNCaP-AR; assay type: cell-based, human; conditions: LNCaP-AR, 144-h exposure, 20.0 μM, TUNEL
[6] = system: normal stem cells derived from human peripheral blood stem cells; assay: Colony-forming cell assay (GM-CFU); assay type: cell-based; conditions: highest concentration tested, 14 days incubation
Protocol: The colony-forming cell assay was used as previously described [Motta M R et al., Exp Hematol 1997; 25:1261-1269]. In brief, for each molecule, 5×10^4 cells were plated in duplicate in a complete culture medium (MethoCult H4434, StemCell Technologies, Vancouver, Canada) containing different concentrations (0.2, 2, and 20 μmol/l) of the compound. After 14 days of incubation in a humidified atmosphere of 5% CO2 at the temperature of 37° C., granulocyte macrophage colony-forming unit (GM-CFU) aggregates of more than 50 cells were counted. Control cells were incubated under the same conditions but in drug-free medium.
The authors also evaluated the potential toxicity of some of the novel compounds in normal cells as the ability of the drugs to inhibit clonogenic growth of normal stem cells derived from human peripheral blood stem cells (FIG. 37). The exposure of hematopoietic precursor to the compounds, caused low ((S)-37) or negligible (, (R)-22, (R)-23, (R)-10) toxicity at the highest concentration tested.

[7] = biological target: T1, human androgen receptor (hAR) (Homo sapiens, UniProt P10275); assay: hAR transactivation assay (ARE-luciferase reporter) in Cos-7 cells; assay type: cell-based
T1 construct: The cDNA coding hAR was cloned into the pSG5 expression vector as reported previously; expressed in transfected cells; host or cells: Cos-7 cells transiently transfected with pSG5-hAR
T1 sequence (P10275 1-920): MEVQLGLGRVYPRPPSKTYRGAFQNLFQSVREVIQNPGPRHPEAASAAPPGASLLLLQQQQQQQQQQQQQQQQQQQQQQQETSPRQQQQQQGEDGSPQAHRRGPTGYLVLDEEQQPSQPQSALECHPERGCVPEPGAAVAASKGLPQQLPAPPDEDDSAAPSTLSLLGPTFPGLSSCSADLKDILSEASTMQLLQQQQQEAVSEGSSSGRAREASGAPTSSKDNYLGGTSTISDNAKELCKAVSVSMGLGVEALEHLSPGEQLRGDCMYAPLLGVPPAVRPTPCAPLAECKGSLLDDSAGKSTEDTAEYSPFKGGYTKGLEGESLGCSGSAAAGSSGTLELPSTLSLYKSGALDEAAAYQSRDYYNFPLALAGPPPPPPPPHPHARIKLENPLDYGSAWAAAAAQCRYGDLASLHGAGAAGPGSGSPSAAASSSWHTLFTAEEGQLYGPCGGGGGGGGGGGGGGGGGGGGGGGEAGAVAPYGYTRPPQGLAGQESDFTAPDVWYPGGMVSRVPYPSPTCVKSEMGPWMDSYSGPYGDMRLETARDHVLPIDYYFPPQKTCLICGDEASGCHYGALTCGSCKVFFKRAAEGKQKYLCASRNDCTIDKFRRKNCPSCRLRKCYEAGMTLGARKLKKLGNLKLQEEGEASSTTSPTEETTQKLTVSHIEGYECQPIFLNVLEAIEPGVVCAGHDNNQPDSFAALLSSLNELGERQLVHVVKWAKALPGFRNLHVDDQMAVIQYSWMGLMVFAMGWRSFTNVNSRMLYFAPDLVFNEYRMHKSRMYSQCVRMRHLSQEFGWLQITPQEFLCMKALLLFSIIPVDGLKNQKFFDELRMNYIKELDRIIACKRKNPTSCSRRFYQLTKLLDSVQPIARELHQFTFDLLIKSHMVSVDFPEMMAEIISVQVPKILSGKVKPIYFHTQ
Protocol: The cDNA coding hAR was cloned into the pSG5 expression vector as reported previously [Chang, C. S., et al., Science (1988)240:324-326]. The 3416 construct (ARE-Luc), containing four copies of the wild-type slp-HRE2 (5′-TGGTCAgccAGTTCT-3′) (SEQ ID No. 1) was cloned in the NheI site in pTK-TATA-Luc [Verrijdt, G. et al., J. Biol. Chem. (2000)275:12298-12305].
For androgen-stimulated transcriptional analysis, 32×10^4 Cos-7 cells were plated in phenol red-free DMEM containing 5% charcoal-stripped serum. After 48 h, the cells were transfected by Superfect (Qiagen) with 0.3 μg of 3416-pTK-TATA-Luc construct, together with 1.5 μg of either pSG5-empty plasmid or pSG5-hAR expressing plasmid. After 18 h, transfected cells were stimulated for 24 h with 10 nM of the synthetic androgen, R1881 (from Perkin-Elmer; dissolved in 0.001% ethanol, final concentration), in the absence or presence of the indicated concentrations of synthetic compounds. When indicated, the synthetic compounds were added alone to the cell medium. […] It was dissolved in 0.001% (final concentration) ethanol. Control cells were treated with the vehicle alone. Lysates were prepared and the luciferase activity was measured using a luciferase assay system (Promega). The results were corrected using CH110-expressed beta-galactosidase activity (Amersham Biosciences) and luciferase activity was expressed as fold induction. Results were obtained from two or three different experiments, each performed in duplicate. Mean and SEM are shown.

[8] = system: HepG2 cells; assay: Cytotoxic activity on hepatoblastoma cell line HepG2; assay type: cell-based, human; conditions: up to highest concentration tested
Protocol: as §3, §1, §2
The authors evaluated in vitro the potential hepato-toxicity of some of the novel compounds on HepG2 cell line, a human hepatoblastoma cell line that retains the specialized function of normal hepatocytes [Knowles B B, et al., Science 1980, 209:497-499; Aden D P, et al., Nature, 1979, 282:615-616].

[9] = Homo sapiens, LNCaP, 144 h, read-out: Growth inhibition (GI50), LNCaP cells, 144 h exposure

Row | SMILES | LC50 ([1]; Homo sapiens, LNCaP, 144 h) | cytocidal (cell killing) activity ([1]; LNCaP cells, 144 h exposure) | GI50 ([1]; read-out: Growth inhibition (GI50), LNCaP cells, 144 h exposure) | cytotoxic properties compared to effects on LNCaP and LNCaP-AR cells [2] | cytotoxic properties compared to effects on LNCaP and LNCaP-AR cells [3] | Apoptotic cells (%) [4] | Apoptotic cells (%) [5] | GI50 [1, 9] | cytostatic effect: suppression of cell growth ([1]; LNCaP cells, 144 h, highest concentration tested) | toxicity: inhibition of clonogenic growth of hematopoietic precursors [6] | inhibition of androgen-induced transcriptional activation (antagonistic activity) ([7]; cells challenged with 10 nM R1881, compound at 10 μM) | agonistic activity, compound alone ([7]; range between 100 nM-10 μM) | potential hepato-toxicity [8] | cytocidal effects by 50% (LC50) ([1]; LNCaP cells, 144 h exposure) | GI50 ([1]; Homo sapiens, LNCaP cells, 144 h exposure, read-out: Growth inhibition (GI50))
1 | N#Cc1ccc(NC(=O)[C@@](N)(CS(=O)(=O)c2ccc(F)cc2)c2ccccc2)cc1C(F)(F)F [(R)-9] | 15 µM | cytocidal activity | 1.6 µM | significant reduction in their cytotoxic proprieties | significant reduction in their cytotoxic proprieties | 93.5% | 83.5% |  |  |  |  |  |  |  | 
2 | CC(C)(C)S(=O)(=O)N[C@@](C)(CS(=O)(=O)c1ccc(F)cc1)C(=O)Nc1ccc(C#N)c(C(F)(F)F)c1 [(R)-22, (R)—N-(4-cyano-3-(trifluoromethyl)phenyl)-2-(1,1-dimethylethylsulfonamido)-3-(4-fluorophenylsulfonyl)-2-methylpropanamide] | 20 µM |  |  |  |  |  |  | 5.8 µM | suppress completely the cell growth | negligible | antagonistic activity | functions as agonist | negligible toxicity |  | 
3 | C[C@](N)(CS(=O)(=O)c1ccc(F)cc1)C(=O)Nc1ccc(C#N)c(C(F)(F)F)c1 [(R)-23, (R)-2-amino-N-(4-cyano-3-(trifluoromethyl)phenyl)-3-(4-fluorophenylsulfonyl)-2-methyl propanamide] |  |  |  |  |  |  |  | 10.6 µM |  | negligible |  |  | negligible toxicity | n.r. | 
4 | C[C@](O)(CS(=O)(=O)c1ccc(F)cc1)C(=O)Nc1ccc(C#N)c(C(F)(F)F)c1 [(R)-Bicalutamide, reference compound] |  |  |  |  |  | 2.1% | 1.0% |  |  |  |  |  |  | n.r. | 1.8 µM
5 | CC(C)(C)S(=O)(=O)N[C@](C)(CS(=O)(=O)c1ccc(F)cc1)C(=O)Nc1ccc(C#N)c(C(F)(F)F)c1 [(S)-22] | 19.8 µM | cytocidal activity |  | significant reduction in their cytotoxic proprieties | significant reduction in their cytotoxic proprieties | 6.2% | 0.0% | 7 µM |  |  |  |  |  |  | 
6 | Cc1ccc(S(=O)(=O)N[C@](C)(CS(=O)(=O)c2ccc(F)cc2)C(=O)Nc2ccc(C#N)c(C(F)(F)F)c2)cc1 [(S)-26] | 18.3 µM |  |  | significant reduction in their cytotoxic proprieties | significant reduction in their cytotoxic proprieties | 77.5% | 91.6% | 6.3 µM |  |  |  |  |  |  | 

Source: patent publication US8859599B2, “Androgen receptor modulating compounds, preparation and uses thereof” (priority 2009, dated 2014)
